The values that follow come from patent publication EP0464022B1, “INSULINOTROPIC HORMONE” (THE GENERAL HOSPITAL CORPORATION, priority 1989, dated 2000).

The test system of series [1] is RINS-38 insulinoma cells. The series can be described thus: Cellular cAMP levels (Table 2). It counts as cell-based, rat. The arrangement: cAMP: unit not given here. Conditions: for stimulation of cAMP levels: even at 10^-11M; for cAMP: 10 minutes. On the procedure:
Cells were grown as described in Example 1, in […] culture dishes. Varying amounts of glucagon-like peptides were added to culture wells in triplicate. After permitting incubation for 10 minutes, the total cell media was examined for cAMP, and the concentration of cAMP was determined. Twenty microliters from each culture well was assayed.
For orientation: Changes in cAMP serve as a functional read-out for many G protein-coupled receptors.

For series [2], the system named is insulinoma cell line RIN 1046-38. Nature of the series: cAMP formation in insulinoma cell line. It counts as cell-based, rat. Conditions: for effects on the formation of cAMP: 5 nM and 50 pM; for effect on cAMP levels: 0.5 µM.
Method: Cells were incubated for 10 minutes in the presence of 0, 10^-11, 10^-9, or 10^-7M peptides.
Series [3] has as its system rat pancreas. Nature of the series: Pancreatic perfusion assay of insulinotropic activity (isolated perfused rat pancreas, insulin radioimmunoassay). It counts as in vivo.
From the text: The insulinotropic property of a compound may be determined by providing that compound to animal cells, or injecting that compound into animals and monitoring the release of immunoreactive insulin (IRI) into the media or circulatory system of the animal, respectively. The presence of IRI is detected through the use of a radioimmunoassay which can specifically detect insulin. Although any radioimmunoassay capable of detecting the presence of IRI may be employed, It is preferable to use a modification of the assay method of Albano, J.D.M., et al., (Acta Endocrinol. 70:487-509 (1972)). In this modification, a phosphate/albumin buffer with a pH of 7.4 was employed. The incubation was prepared with the consecutive condition of 500 µl of phosphate buffer, 50 µl of perfusate sample or rat insulin standard in perfusate, 100 µl of anti-insulin antiserum (Wellcome Laboratories; 1:40,000 dilution), and 100 µl of [^125I] insulin, giving a total volume of 750 µl in a 10 x 75-mm disposable glass tube. After incubation for 2-3 days at 4°C, free insulin was separated from antibody-bound insulin by charcoal separation. The assay sensitivity was 1-2 µU/ml.
The insulinotropic property of a compound may also be determined by pancreatic infusion. The in situ isolated perfused rat pancreas preparation was a modification of the method of Penhos, J.C., et al. (Diabetes 18:733-738 (1969)). In accordance with such a method, fasted rats (preferably male Charles River strain albino rats), weighing 350-600 g, are anesthetized with an intraperitoneal injection of Amytal Sodium (Eli Lilly and Co., 160 ng/kg). Renal, adrenal, gastric, and lower colonic blood vessels are ligated. The entire intestine is resected except for about four cm of duodenum and the descending colon and rectum. […] The perfusate is preferably a modified Krebs-Ringer bicarbonate buffer with 4% dextran T70 and 0.2% bovine serum albumin (fraction V), and is preferably bubbled with 95% O2 and 5% CO2. A nonpulsatile flow, four-channel roller-bearing pump (Buchler polystatic, Buchler Instruments Division, Nuclear-Chicago Corp.) is preferably used, and a switch from one perfusate source to another is preferably accomplished by switching a three-way stopcock.
Isolated rat pancreas was prepared according to the method of Weir, G.C., et al., (J. Clin. Invest. 54:1403-1412 (1974)), and Penkos, J.C., et al. (Diabetes 18:733-738 (1969)). The perfusate contained bicarbonate buffer (pH 7.4) and 120 mg/dl glucose, 4% dextran T-70, and 0.2% bovine serum albumin, and was equilibrated with 95% oxygen and 5% carbon dioxide. The first 20 minutes of each perfusion was an equilibrium period. After this initial period, aliquots of perfusate were removed every 2-4 min for additional 20 min, thus allowing the system to equilibrate for a total of 40 min. The perfusion, including any added insulinotropic peptide, was for 6 min and samples were collected at 1-min intervals. When more than one perfusion was to be performed, the peptide perfusions were followed by equilibration periods of 20 min, during which four samples 5 min apart were collected. […] Again, samples 1 min apart were collected. The entire perfusion time was between 70 and 85 mm.
In each aliquot of perfusate obtained, insulin was determined by radioimmunoassay.
Series [4] is described as follows: Biological half-life.
Series [5] is described as follows: Stability in culture medium (HPLC and radioimmunoassay). Particulars: 24 hr; conditioned medium containing 01% bovine serum albumin. It counts as in vitro ADME. On the procedure: To assess the stability of the […] peptide in the experimental conditions, GLP-1 (1-37) was incubated for 24 hr in culture medium alone or in medium supplemented with either 0.1% bovine serum albumin or 10% fetal bovine serum. Aliquots of media were analyzed by high-pressure liquid chromatography and radioimmunoassay.

For series [6], the system named is Rat insulinoma cells of cell line RIN-38. Nature of the series: mRNA levels by Northern hybridization in insulinoma cells. Conditions: peptide 10^-7M; 25 mM glucose. It counts as cell-based.
Method: The cells were maintained in DMEM (Gibco) at a glucose concentration of 4,500 mg/L and supplemented with 10% heat-inactivated fetal bovine serum (Gibco), 100 U/ml of penicillin and 100 µg/ml of streptomycin. Incubations were carried out at 37°C in 95% air:5% CO2. Cells grown in the above manner were washed and resuspended in DMEM (Gibco) containing 0.1% bovine serum albumin and 25 mM glucose. […] In all cases, the concentration of peptides was 10^-7M. Incubations were for six hours.
Messenger RNAs specific for insulin, actin, or angiotensinogen were identified by Northern hybridization as follows: cellular RNA was extracted from solid tumors and cells by homogenization in guanidine thiocyanate and sedimentation through a cesium chloride cushion. Poly A^+ RNA was isolated by oligo dT cellulose chromatography (Aviv, H., et al., Proc. Natl. Acad. Sci., USA 69:1408-1412 (1972)). Twenty micrograms of total RNA from each sample were fractionated by size on a 1.4% agarose gel after denaturation in glyoxal, followed by electrotransfer to a nylon membrane (Nytran; Schleicher and Schuell). […] The relative amounts of the specific mRNA were determined by microdensitometry.

On to “GLP-1 (1-37): GLP-1 polypeptide having all amino acids from 1 (N-terminus) through 37 (C-terminus)”, for which the “stimulation of cAMP levels” value in series [1] was “neither GLP-1 (1-37) nor GLP-II exhibited such activity”. In addition, the cAMP in series [1] (peptide 10^-6 M) is given as 170; in series [1] (peptide 10^-7 M), 120; in series [1] (peptide 10^-8 M) it was 160; in series [1] (peptide 10^-9 M), 100; in series [1] (peptide 10^-10 M), 90; in series [1] (peptide 10^-11 M), 90. The “effects on the formation of cAMP” value in series [2] is recorded as “negligible”. Besides, in series [2], the “effect on cAMP levels” value is reported as “increased cAMP levels”. In series [3] (5 x 10^-7M), the “increase in serum insulin concentrations” value is recorded as 3.4 fold. For the same substance, the “Insulin Produced” value in series [3] (5x10^-7M, 0 minutes (before peptide added)) is reported as 1,400 picograms/ml; in series [3] (5x10^-7M, 1 minute) it was 4,700 picograms/ml; in series [3] (5x10^-7M, 2 minutes), 2,900 picograms/ml; in series [3] (5x10^-7M, 3 minutes), 2,200 picograms/ml; in series [3] (5x10^-8M, 0 minutes (before peptide added)), 3,000 picograms/ml; in series [3] (5x10^-8M, 1 minute), 6,000 picograms/ml. Moreover, the “Insulin Produced” value in series [3] (5x10^-8M, 2 minutes) is 2,000 picograms/ml; in series [3] (5x10^-8M, 3 minutes), 2,000 picograms/ml; in series [3] (5x10^-10M, 0 minutes (before peptide added)), 500 picograms/ml; in series [3] (5x10^-10M, 1 minute) it was 600 picograms/ml; in series [3] (5x10^-10M, 2 minutes) it was 640 picograms/ml; in series [3] (5x10^-10M, 3 minutes) it was 430 picograms/ml. For the same substance, the “Insulin Produced” value in series [3] (5x10^-11M, 0 minutes (before peptide added)) came to 340 picograms/ml; in series [3] (5x10^-11M, 1 minute) it was 180 picograms/ml; in series [3] (5x10^-11M, 2 minutes), 230 picograms/ml; in series [3] (5x10^-11M, 3 minutes), 340 picograms/ml; in series [3] (5x10^-12M, 0 minutes (before peptide added)), 50 picograms/ml; in series [3] (5x10^-12M, 1 minute), 50 picograms/ml. Moreover, the “Insulin Produced” value is listed as 160 picograms/ml in series [3] (5x10^-12M, 2 minutes) and 50 picograms/ml in series [3] (5x10^-12M, 3 minutes). In addition, the “increase in serum insulin levels” value is “two-fold” in series [3] (5 x 10^-8M) and 20% in series [3] (5 x 10^-10M). Moreover, the “effect on insulin levels” value in series [3] (5 x 10^-11M) was “without effect”. The insulinotropic activity entry in series [3] (10^-11 M, five minute perfusion) was “inactive”. Also, the insulin-releasing activity entry in series [3] (even at concentrations as high as 5 X 10^-7M) is “no insulin-releasing activity”. Also, the biological half-life in series [4] is reported as 30-50 minutes. For the same substance, the “stability: cleavage after incubation” value in series [5] was “a small peak of GLP-1 (7-37) appeared”.
Take “GLP-1-(1-36)-NH2: GLP-1 (1-36 des-gly-arg amide); Peninsula Laboratories”: in series [2], the “effects on the formation of cAMP” value was “negligible” and the “effect on cAMP levels” value is listed as “increased cAMP levels”.
Turning to “GLP-II: glucagon-like peptide 2 (GLP-2) (HADGSFSDEMNTILDNLAARDFINWLIQTKITD; Glucagon-like peptide 2; UniProt P01275 146-178, looked up)”, in series [6], the “effect on insulin mRNA levels” value is recorded as “no effects”. Further, the “stimulation of cAMP levels” value in series [1] is listed as “neither GLP-1 (1-37) nor GLP-II exhibited such activity”.
